# Source: patent US20070072931A1, “Pharmaceutical composition and a method for treatment of prostate cancer” (priority 2005, published 2007)
# Entries after “also recorded” stand apart in the source; their conditions may differ.
# Columns and labels:
# cytochrome c = assay: Immunofluorescence of cytochrome c release in PC-3 cells; type: cell-based, human
# Protocol: Cells were cultured on glass cover slips. Both control and treated cells were fixed with PBS containing 4% paraformaldehyde for 2 hrs at 4° C. The cells were permiabilized with 0.1% Triton X-100 in PBS and then incubated with rabbit polyclonal anti-cytochrome c antibody (Santa Cruz, USA, dilution 1:50) for 3 hrs followed by incubation with FITC-conjugated secondary antibody (goat anti-rabbit, Santa Cruz, 1:50) for another 1 hr with rigorous washing in all the above steps with PBS. 1 μg/ml DAPI was also added in each set. The stained cells were observed under fluorescence microscope (Olympus BX51 microscope, Tokyo, Japan) and the images were captured with Cool Snap Pro camera.
# caspase 3 = assay: Immunoblotting of caspase 3 activation in PC-3 cells; type: cell-based, human
# Protocol: (§1) PC-3 cells (1×10^6 cells) were incubated with complete medium. Cells were detached using cell dissociation reagent from Sigma Chemical company St Louis, Mo., USA. They were collected by centrifugation at 1500 g for 10 minutes and boiled for 5-7 minutes in sodium dodecyl sulphate (SDS) buffer (pH 6.8). Aliquots containing 60 μg total cellular protein were separated by 10% SDS-PAGE and transferred to PVDF membrane (MILIPORE, Bedford, Mass., USA). Membrane was blocked with blocking buffer for 1 hr at room temperature and probed with desired primary antibody caspase 9, Bcl-xl, pAkt/1/2/3(ser 473), anti PARP, Cytochrome C (Santa-Cruz Biotechnology, Inc. USA). Anti caspase 3 that recognizes procaspase 3 (32 kDa) and the active cleaved caspase 3 (17 kDa) (BD Biosciences, Mountainview, Calif.). Akt, cleaved caspase 9 (Cell Signaling technology, Beverly, Mass.) overnight at 4° C. followed by alkaline phosphatase conjugated secondary antibody and detection.
# (§2) PC-3 cells (1×10^6 cells) were incubated with complete medium alone or with 3 μg/ml of Mahanine (MK-3) as indicated. Cells were detached using cell dissociation reagent from Sigma Chemical company St Louis, Mo., USA. The cells were collected by centrifugation at 1500 g for 10 minutes and boiled for 5-7 minutes in SDS buffer (pH 6.8). […]
# LNCaP cells = assay: Cell killing / viability of androgen dependent prostate cancer cell line LNCaP; type: cell-based; conditions: mahanine 1, 2, 3 μg/ml vs untreated cells
# Protocol: FIG. 2 is a graph showing dose response of PC-3 and LNCaP cell line to mahanine. […] The dose used was 1, 2, 3 μg/ml in comparison to control untreated cells (0) in both the cell lines.
# caspase 9 = assay: Immunoblotting of caspase 9 activation in PC-3 cells; type: cell-based, human; conditions: 3 μg/ml
# Protocol: as §1, §2
# Bcl-xl = assay: Immunoblotting of Bcl-xl expression in PC-3 cells; type: cell-based, human; conditions: 36 hrs (mahanine 3 μg/ml)
# Protocol: as §1, §2
# cardiomyocytes = assay: Cell viability, primary culture of rat neonatal cardiomyocytes; type: cell-based; conditions: 9 μg/ml
# Protocol: (§3) The cardiomyocytes from 2-day-old neonatal rat were isolated by the method previously described by Yoshihiro Kimura (1994) with modifications. Briefly, heart was excised and minced in pre warmed (37° C.) Ads buffer (1.2M NaCl, 198 mM HEPES, 54 mM KCl, 8.3 mM MgSO4, 55.4 mM glucose, 95 mM NaH2PO4), digested in type II Collagenase 0.05% and Pancreatin in three successive digestions of 15 minutes each. Supernatant was pooled and cells palleted at 2000 g, for 10 minutes. Cells were resuspended and plated in collagen coated T-25 flasks in Medium-199 enriched with 10% FBS and 1% antibiotic-antimycotic.
# as §3, with “Briefly, the” for “Briefly,”, “pre-warmed” for “pre warmed”, “3-succesive” for “three successive”, “g,” for “g, for”
# (§4) To evaluate the specificity of mahanine, its effect on other cells in primary culture, such as, hepatocytes, cardiomyocyte and skeletal muscle was examined.
# hepatocytes = assay: Cell viability, primary culture of rat neonatal hepatocytes; type: cell-based; conditions: 9 μg/ml
# Protocol: (§5) The hepatocytes from 2-day-old neonatal rats were isolated by method described previously by William E. Russell (1997) with modifications. Briefly, the livers were perfused through the portal vein with a calcium-free solution consisting of 150 mM NaCl, 2.8 mM KCl, 5.5 mM glucose, and 25 mM HEPES (pH 7.6) for 10 minutes, followed by mincing and digestion in DMEM containing 0.05% collagenase type IV for 30 minutes. The cells were centrifuged (2000 g, 10 minutes) and dispersed in DMEM enriched with 10% FBS, 1% antibiotic-antimycotic.
# The hepatocytes from 2-day-old neonatal rat were isolated by method described previously by William E Russell (1997) with modifications.
# as §5, with “Briefly,” for “The hepatocytes from 2-day-old neonatal rats were isolated by method described previously by William E. Russell (1997) with modifications. Briefly,”
# as §4
# skeletal muscle cells = assay: Cell viability, primary culture of neonatal rat skeletal muscle; type: cell-based; conditions: 9 μg/ml
# Protocol: The skeletal muscles from 2-day-old neonatal rats were isolated by method described previously by William E. Russell (1997) with modifications. Briefly, Soleus muscle was dissected, minced and digested with 0.2% Type II Collagenase and 0.05% trypsin in PBS pH 7.4, 0.15M NaCl. The dispersed skeletal muscle cells were centrifuged (100 g, 10 minutes) washed and resuspended in PBS with 1% antibiotic-antimycotic. Cells were preincubated for 30 minutes at 37° C., 95% air/5% CO2. The floating muscle cells were plated on collagen coated T-25 flasks in DMEM enriched with 10% FBS and 1% antibiotic-antimycotic.
# The skeletal muscles from 2-day-old neonatal rat were isolated by method described previously by William E. Russell (1997) with modifications.
# Briefly, Soleus muscles were dissected, minced and digested with 0.2% Type II Collagenase and 0.05% trypsin in PBS, pH 7.4, 0.15M NaCl. The dispersed skeletal muscle cells were centrifuged (1000 g, 10 minutes) washed and re-suspended in PBS with 1% antibiotic-antimycotic. Cells were preincubated for 30 minutes at 37° C., 95% air/5% CO2. The floating muscle cells were plated on collagen coated T-25 flasks in DMEM enriched with 10% FBS and 1% antibiotic-antimycotic.
# as §4
# Akt = assay: Immunoblotting of Akt and pAkt (ser 473) in PC-3 cells; type: cell-based, human
# Protocol: as §1
# PC-3 cells (1×10^6 cells) were incubated with complete medium alone or with 3 μg/ml of Mahanine (MK-3) as indicated. Cells were detached using cell dissociation reagent from Sigma Chemical company St Louis, Mo., USA. The cells were collected by centrifugation at 1500 g for 10 minutes and boiled for 5-7 minutes in SDS buffer (pH 6.8). Aliquots containing 60 μg total cellular protein were separated by 10% SDS-PAGE and transferred to PVDF membrane (MILIPORE, Bedford, Mass., USA). Membrane was blocked with blocking buffer for 1 hr at room temperature and probed with desired primary antibody caspase 9, Bcl-xl, pAkt/1/2/3(ser 473), anti PARP, Cytochrome C (Santa-Cruz Biotechnology Inc., USA). Anti-caspase 3 that recognizes procaspase 3 (32 kDa) and the active cleaved caspase 3 (17 kDa) (BD Biosciences, Mountainview, Calif.) were also used. Akt, cleaved caspase 9 (Cell Signaling Technology, Beverly, Mass.) overnight at 4° C. followed by alkaline phosphatase conjugated secondary antibody and detection.
# PARP = assay: Immunoblotting of PARP cleavage in PC-3 cells; type: cell-based, human; conditions: 3 μg/ml
# Protocol: as §1, §2
# [1] = Acute toxicity as per WHO guidelines, haematological and biochemical parameters; type: in vivo, Mice; Balb/C
# Protocol: Experiments for acute toxicity were performed as per the guidelines of WHO.
# Experimental subject: Mice; Balb/C Male, female; 25 gms body weight (approx).
# 16 mice were divided into 2 groups; 8 animals received the dosage of @2 gm/kg body weight of combined extract. Equal volume of the vehicle (DMSO) was given to 8 animals, wherein the dose was administered orally once and then animals were sacrificed and haematological parameters checked 15 days after treatment.
# Experimental subject: Mice; Balb/C Male; female; 25 gms body weight (approx).
# 16 mice were divided into 2 groups 8 animals were received the compound @2 gm/kg body weight. Equal volume of the vehicle (DMSO) was given to 8 animals, wherein the dose was administered orally once, and then animals were sacrificed and haematological and biochemical parameters checked 15 days after treatment.
# Biochemical parameters were assessed for the pure molecule mahanine. Since it is a pure molecule there is a need to see the biochemical profile, therefore we concentrated on the biochemical parameters only. The experimental procedure followed was the same as that for the combined extract described above.
# PC-3 cells = assay: Viability of PC-3 by MTT assay (CellTiter 96 AQueous One); type: cell-based, human; conditions: mahanine 1, 2, 3 μg/ml vs untreated cells
# Protocol: Human prostate cancer cell line, PC-3 (PTEN-ve, androgen independent) from American Type Culture Collection, Manassas, Va., USA was used. Cells were grown in Dulbecco's Modified Eagle Medium (DMEM) supplemented with 10% Fetal Bovine Serum (FBS) and 1% antibiotic-antimycotic. Cells were cultured in 37° C. in an atmosphere of 5% CO2.
# Viability of PC-3 after treatment as at the indicated times was determined by MTT assay—CellTiter 96® AQoueus One Solution Cell Proliferation Assay (Promega Corp., Madison, Wis.), as per manufacturer's protocol. Briefly, 10,000 cells were plated in triplicate in 96 well plates and incubated for 12 hrs in complete media. […] Absorbance was recorded at 490 nm with 96 well plate readers. Reference wavelength of 630 nm was used to reduce background contributed by non-specific absorbance due to cell debris. […]
# Viability of PC-3 after treatment as at the indicated times was determined by MTT assay—CellTiter 96® AQoueus One Solution Cell Proliferation Assay (Promega Corp., Madison, Wis.), as per manufacturer's protocol.
# Briefly, 10,000 cells were plated in triplicate in 96 well plates and incubated for 12 hrs in complete media. […] Absorbance was recorded at 490 nm with 96 well plate readers. Reference wavelength of 630 nm was used to reduce background contributed by non-specific absorbance due to cell debris.
substance,measurement,setting,value
mahanine,leakage of cytochrome c from the mitochondria,cytochrome c,caused leakage of cytochrome c
same,time of peak of caspase 3 activity,caspase 3; PC-3 cells (mahanine 3 μg/ml),60 h
same,activation of caspase 3 at 48 hrs,"caspase 3; PC-3 cells, 48 hrs (mahanine 3 μg/ml)",considerably increased
same,killing / apoptosis of androgen dependent cell line LNCaP,LNCaP cells,in a dose and time dependent manner
same,earliest time at which cleaved caspase 9 could be detected,caspase 9,6 h
same,time course of cleaved caspase 9,caspase 9,"steadily increased at 12 hrs and 24 hrs, and declined at 36 hrs"
same,Bcl-xl expression at 36 hrs,Bcl-xl,significantly decreased; also recorded: considerably downregulated
same,killing of cardiomyocytes in primary culture,cardiomyocytes,did not kill
same,killing of hepatocytes in primary culture,hepatocytes,did not kill
same,killing of skeletal muscle cells in primary culture,skeletal muscle cells,did not kill
same,effect on steady state levels of Akt protein,Akt; PC-3 cells,no effect
same,inhibition of phosphorylation of Akt,Akt; PC-3 cells,in a dose and time dependent manner
same,time at which Akt serine 473 phosphorylation was inhibited,Akt; PC-3 cells (mahanine 3 μg/ml),24 h
same,time by which Akt activation was totally blocked,Akt; PC-3 cells (mahanine 3 μg/ml),≤ 36 h
same,time of maximum cleavage of PARP (89 kDa fragment),PARP,36 h
same,indication of toxicity in treated mice,"[1]; Balb/C mice, 2 gm/kg orally once, 15 days after treatment",no indication of any toxicity
same,Creatinine,"[1]; Balb/C mice, 2 gm/kg orally once, 15 days after treatment, vehicle control 3.82",3.72 mg/dL
same,Hb,"[1]; Balb/C mice, 2 gm/kg orally once, 15 days after treatment, vehicle control 10.69",10.713 gm/dl
same,SGPT,"[1]; Balb/C mice, 2 gm/kg orally once, 15 days after treatment, vehicle control 32.0",30.7 units/ml
same,Urea,"[1]; Balb/C mice, 2 gm/kg orally once, 15 days after treatment, vehicle control 35.4",48.6 mg/dL
same,WBC,"[1]; Balb/C mice, 2 gm/kg orally once, 15 days after treatment, vehicle control 92",89
same,SGOT,"[1]; Balb/C mice, 2 gm/kg orally once, 15 days after treatment, vehicle control 147.5",174.0 units/ml
same,RBC,"[1]; Balb/C mice, 2 gm/kg orally once, 15 days after treatment, vehicle control 1029",1032
same,change in acute toxicity data until 1 month,"[1]; mice, until 1 month",no change
same,killing / apoptosis of androgen independent cell line PC-3,PC-3 cells,in a dose and time dependent manner
same,killing / apoptosis of androgen independent cell line PC-3,PC-3 cells; listed as mahanine,in a time and dose dependent manner
